Experimental data as given in patent US20130316994A1, “Methods of Reducing Risk of Hepatobiliary Dysfunction During Rapid Weight Loss with METAP-2 Inhibitors” (Zafgen, Inc., priority 2010, published 2013).

System: alkaline phosphatase
Assay: Administration of MetAP2 inhibitor to obese patients: alkaline phosphatase
Format: in vivo, human
Conditions: 0.1, 0.3 or 0.9 mg/m^2 administered biweekly for 26 days, versus placebo, FIG. 1
Experimental: Patients treated with either a placebo, 0.1 mg/m^2 (approximately 0.2 mg per dose) of the MetAP2 inhibitor O-(4-dimethylaminoethoxycinnamoyl)fumagillol, 0.3 mg/m^2 (approximately 0.6 mg per dose), or 0.9 mg/m^2 of calculated body surface area (approximately 1.9 mg per dose) administered biweekly for 26 days. […] This reduction is indicative of a decrease in hepatic injury or hepatobiliary dysfunction, which is consistent with reduced biliary sludging and/or gallstone formation.

SMILES: CO[C@@H]1[C@H](OC(=O)C=Cc2ccc(OCCN(C)C)cc2)CC[C@]2(CO2)[C@H]1[C@@]1(C)O[C@@H]1CC=C(C)C [O-(4-dimethylaminoethoxycinnamoyl)fumagillol]
- reduction in alkaline phosphatase: significant reduction in alkaline phosphatase was observed with increasing MetAP2 inhibitor dosage
